Consider one compound from patent US20150352075A1, “Treatment of Alzheimer's and Cognitive Impairment With Andrographolides” (INNOBIOSCIENCE, LLC, priority 2013, published 2015).

Experiment [1] deals with APPswe/PS-1 double transgenic mice. Kind of experiment: LTP by TBS in hippocampal CA1 slices from treated transgenic mice. Type of experiment: in vivo. As to conditions: slices from both sets (7- and 12-month-old) of treated APPswe/PS-1 mice.
Experiment [2] has the same test system. As to the kind of experiment: Thioflavine-S staining of amyloid plaques in brain of treated mice. Type of experiment: in vivo.
Experiment [3] shares this test system. Kind of experiment: Slot blot of Aβ oligomers (A11 antibody) in hippocampus of treated mice. Type of experiment: in vivo.
For experiment [4], the system named is Wnt/β-catenin pathway in cultured rat hippocampal neurons. Kind of experiment: Wnt/β-catenin pathway activation in cultured hippocampal neurons (western blot, immunofluorescence). The format is cell-based. The protocol: Primary culture of rat hippocampal neurons. Rat hippocampal cultures were prepared as previously described (Arrazola et al, 2009). On day 3 of culture, hippocampal cells were treated with […] 1-b-Darabinofuranosylcytosine (AraC) during 24 h to reduce the number of proliferating non-neuronal cells. […] PCR-ARRAY. RNA from hippocampal neurons was extracted using Trizol. Quantification and purity of RNA preparations were checked by absorbance using Nanodrop ND-2000. Only preparations with a 260/280 nm ratio ≧1.8, a 260/230 nm ratio ≧1.7 and no sign of RNA degradations, verified by agarose gel electrophoresis with Gel Red™ were used. Genomic DNA was degraded. Using RT2First-Strand cDNA Synthesis kit (SuperArray), 1 ng total RNA was reverse transcribed and then real-time PCR was performed by adding cDNA directly to PCR Master Mix, containing SYBR Green and ROX. The mixtures were then aliquoted into a 96-well PCR array plates, which profiles the expression of 84 Wnt target genes from rat. The PCR was run on ABI StepOnePlus, with 1 cycle of 10 min at 95° C. followed by 40 cycles of 15s at 95° C. and 1 min at 60° C. Cycle threshold (Ct) values were calculated for all the genes present on the array (Schmittgen & Livak, 2008). Treatment of neuronal cultures. Primary hippocampal cultures of neurons 14 DIV were washed twice in neurobasal medium and maintained for 1 hour. Next ANDRO (10 μM) and 6-BIO (10 μM) were added to different time periods.
Following a time-course treatment, neurons were washed with cold PBS and harvested in 600 μL of cold homogenization buffer (10 mM HEPES pH 7.9; 1.5 mM MgCl2; 10 mM KCl; 1 mM DTT). The cells were disrupted by 20 passed, back and forth, through a syringe of 1mL. Lysates were centrifuged for 6 minutes at 700 g at 4° C. and the supernatant was removed. The precipitate was washed in 100 μL of buffer (20 mM HEPES pH=7.9; 420 mM NaCl; 1.5 mM MgCl2; 0.2 mM EDTA; 1 mM DTT; 25% glicerol) and centrifuged again to generate nuclear fraction. Cytosolic fractions were generated from the supernatantat 100.000 g […] 4° C. Both buffers were supplemented with protease inhibitors and serine-phosphatase. Nuclear and cytosolic fractions were subsequently subjected to western blotting.
The samples were dissected on ice and immediately frozen in liquid nitrogen or processed has previously detailed (Inestrosa et al, 2011). Briefly, tissues were homogenized in RIPA buffer (10 mM Tris-Cl, pH 7.4, EDTA 5 mM, 1% NP-40, 1% sodium deoxycholate, and 1% SDS) supplemented with a protease inhibitor mixture (1 mM PMSF, 2 μg/mL aprotinin, 1 μg/mL pepstatin and 10 μg/mL benzamidine) and phosphatase inhibitors (25 mMNaF, 100 mM Na3VO4, 1 mM EDTA and 30 μM Na4P207) using a Potter homogenizator and then passed sequentially through different caliber syringes. Protein samples were centrifuged at 14000 rpm at 4° C. twice for 15 min. Protein concentration was determined using the BCA Protein Assay Kit (Pierce). Samples were resolved by […] 10% SDS-PAGE and transferred to a PVDF membrane. The reactions were followed by incubation with anti-mouse, anti-goat or anti-rabbit IgG peroxidase conjugated (Pierce, Rockford, Ill.) and developed using an ECL kit (Western Lightning Plus ECL, PerkinElmer).
Hippocampal neurons were seeded onto poly-L-lysine-coated cover slips in 24-well culture plates at a density of 5×10^4 cells per well, as described previously (Arrazola et al, 2009; Chacon et al, 2008). A mouse monoclonal anti-b-catenin was used. Cells were extensively washed with PBS and then incubated with Alexa 488-conjugated anti-mouse IgG for 1 h at room temperature. Cells were mounted in mounting medium and analyzed in a Carl-Zeiss Confocal Laser Microscope.

Experiment [5] relates to HEK293T cells. Kind of experiment: TOPflash/FOPflash luciferase reporter assay. Type of experiment: cell-based. As for the experimental part:
150,000 HEK293T cells were seeded in triplicate per condition and kept for 24 hours at 37° C. with 5% CO2. The cultures were transfected with TOPflash or FOPflash (400 ng), which are firefly-luciferase reporter DNA constructs (Milipore), using LipofectAMINE 2000 (Invitrogen). To control for transfection pRL-TK (10 ng) was included in all transfections. […] Values were normalized by the renilla value from the same well. To statistically compare treatments ANOVA was used.

[6] abbreviates: young APPswe/PS-1 mice, vs controls.
Where [7] appears, read: hippocampal neurons, ANDRO 10 μM.
[8] abbreviates: hippocampal neurons, different concentrations for 6 h.

Turning to `C=C1CC[C@@H]2C(C)(CO)C(O)CC[C@@]2(C)C1C/C=C1/C(=O)OCC1O` (stereo in doubt) [ANDRO, 3-(2-(Decahydro-6-hydroxy-5-(hydroxymethyl)-5,8a-dimethyl-2-methylenenaphthyl)ethylidene)dihydro-4-hydroxyfuran-2(3H)-one], the “LTP induction in CA3-CA1 transmission” value in experiment [1] was “have the property to induce a LTP that is maintained for 1 h”. Besides, the “plaque size distribution (cumulative frequency)” value in experiment [2] (7 month-old APPswe/PS-1 mice) is reported as “shift in their distribution toward smaller plaque size”. The “amyloid plaques stained with Th-S” value in experiment [2] (7 month-old APPswe/PS-1 mice, cortex and hippocampus, vs untreated) was “reduction of amyloid plaques stained with Th-S”. Also, in experiment [2] (FIG. 3F mice (printed young; legend: old, 12 month-old), hippocampus or cortex), the “amyloid deposit levels (amyloid burden area)” value is given as “no change in amyloid deposit levels”. In experiment [2] (setting [6]), the “most immature plaques (type 1)” value is given as “increase significantly”; the “type 2a and 2c amyloid plaques in total brain” value is “no significant differences”; the “type 2b amyloid plaques in brain” value is reported as “significantly decreased”. Moreover, the “level of Aβ oligomers (A11 slot-blot)” value in experiment [3] (7 month-old APPswe/PS-1 mice) was “did not show significant changes”. Moreover, the “levels of Aβ-oligomers (A11 slot blot)” value in experiment [3] (FIG. 3G mice (legend: old APPswe/PS-1)) was “did not show significant changes”. The “β-catenin levels by immunofluorescence” value in experiment [4] (5 μM for 6 h, neurons at 14 DIV) is given as “increased β-catenin levels”. In experiment [4] (setting [7]), the “time of maximum increase of the inhibited form of GSK-3β” value is given as 6 h; the “time of peak accumulation of cytoplasmic and nuclear β-catenin” value worked out at 9 h. Moreover, in experiment [4] (setting [8]), the “accumulation of β-catenin” value is listed as “accumulation of β-catenin in a concentration-dependent manner”, the “active form of GSK-3β (phospho-Tyr-216)” value is “decrease in the active form (phosphor-Tyr-216)” and the “inhibited form of GSK-3β (phospho-Ser-9)” value is “increase in the inhibited form of the enzyme (phospho-Ser-9)”. In experiment [5] (10 μM, 24 h), the FOPflash reporter activity entry is recorded as “not in the FOPflash” and the TOPflash reporter activity entry is “significant increase in the TOPflash”. Moreover, the “increase of luciferase reporter over control” value in experiment [5] (HEK293T, TOPflash) was 4 fold.
